This is an account of results in ChEMBL document CHEMBL1144048, “Facile preparation of new 4-phenylamino-3-quinolinecarbonitrile Src kinase inhibitors via 7-fluoro intermediates: identification of potent 7-amino analogs” (Bioorg Med Chem, 2008).

Each structure is given as a SMILES string. Values after ≈ are worked out from the molar mass of the structure shown.

Series [1] can be described thus: Inhibition of human cSrc-vSrc fusion protein expressed in rat fibroblast cells by ELISA. It counts as cell-based. For orientation: In an ELISA, binding on a coated surface is turned into a signal by an enzyme label.
The test system of the next series is HT-29. As to the kind of experiment: Inhibition of tumor growth in human HT29 cells xenografted nude mouse at 150 mg/kg, po OD after 14 days relative to control. It counts as functional. Conditions: HT-29, 336 h. For orientation: In xenograft studies the graft and the host belong to different species.
Series [2] in a line: Drug level in nude mouse plasma at 50 mg/kg, po after 24 hrs. Also on record: dose 50 mg/kg, route oral. It counts as ADME, organism-based.
A short description of series [3]: Drug level in nude mouse plasma at 50 mg/kg, po after 4 hrs. It counts as ADME, organism-based. Also on record: dose 50 mg/kg, route oral.
The nature of series [4]: Permeability across artificial membrane by PAMPA. It counts as ADME. The settings on record: read-out: permeability. Background: The PAMPA barrier holds no transporters, so it reflects passive diffusion.
The target in another series is CYP3A4 (Homo sapiens, UniProt P08684). The series is described as follows: Inhibition of CYP3A4 at 3 uM. It counts as ADME.
Sequence of CYP3A4 (P08684 whole entry): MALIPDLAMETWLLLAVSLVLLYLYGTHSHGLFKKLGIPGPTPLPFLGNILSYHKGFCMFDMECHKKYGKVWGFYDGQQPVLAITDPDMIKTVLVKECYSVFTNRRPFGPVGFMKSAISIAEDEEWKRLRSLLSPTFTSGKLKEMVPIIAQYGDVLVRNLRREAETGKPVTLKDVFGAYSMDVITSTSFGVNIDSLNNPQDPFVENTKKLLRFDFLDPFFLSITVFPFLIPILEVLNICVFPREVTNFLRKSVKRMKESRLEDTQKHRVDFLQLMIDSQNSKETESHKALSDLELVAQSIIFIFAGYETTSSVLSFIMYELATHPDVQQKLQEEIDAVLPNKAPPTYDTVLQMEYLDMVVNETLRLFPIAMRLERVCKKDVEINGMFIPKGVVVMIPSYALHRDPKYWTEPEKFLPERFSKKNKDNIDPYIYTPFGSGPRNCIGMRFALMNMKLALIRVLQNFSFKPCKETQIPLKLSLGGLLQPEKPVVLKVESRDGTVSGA
Series [5] in a line: Drug level in nude mouse plasma at 50 mg/kg, po after 8 hrs. It counts as ADME, organism-based. Also on record: dose 50 mg/kg, route oral.
A further series has as its target CYP2D6 (Homo sapiens, UniProt P10635). As to the kind of experiment: Inhibition of CYP2D6 at 3 uM. It counts as ADME.
Series [6] can be described thus: Solubility at pH 7.4. Conditions: buffer. It counts as physicochemical.
Series [7] in a line: Stability in mouse plasma after 300 mins. It counts as ADME, cell-free. Conditions: read-out: Stability.
The next series addresses CYP2C9 (Homo sapiens, UniProt P11712). As to the kind of experiment: Inhibition of CYP2C9 at 3 uM. It counts as ADME.

Sequence of CYP2D6 (P10635 whole entry): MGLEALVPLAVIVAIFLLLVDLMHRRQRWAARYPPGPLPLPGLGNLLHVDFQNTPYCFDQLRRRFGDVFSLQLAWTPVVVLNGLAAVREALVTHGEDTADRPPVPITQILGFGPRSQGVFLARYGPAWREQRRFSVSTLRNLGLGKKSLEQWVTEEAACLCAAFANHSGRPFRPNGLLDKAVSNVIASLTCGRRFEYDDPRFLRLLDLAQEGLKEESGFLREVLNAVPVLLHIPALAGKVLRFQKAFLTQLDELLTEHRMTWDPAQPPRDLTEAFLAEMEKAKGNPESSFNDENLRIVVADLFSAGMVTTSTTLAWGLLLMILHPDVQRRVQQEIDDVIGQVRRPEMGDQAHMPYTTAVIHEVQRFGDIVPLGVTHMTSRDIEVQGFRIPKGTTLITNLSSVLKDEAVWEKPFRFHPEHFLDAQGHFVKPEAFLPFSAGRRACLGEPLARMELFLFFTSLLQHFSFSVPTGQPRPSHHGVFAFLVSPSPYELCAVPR
Sequence of CYP2C9 (P11712 whole entry): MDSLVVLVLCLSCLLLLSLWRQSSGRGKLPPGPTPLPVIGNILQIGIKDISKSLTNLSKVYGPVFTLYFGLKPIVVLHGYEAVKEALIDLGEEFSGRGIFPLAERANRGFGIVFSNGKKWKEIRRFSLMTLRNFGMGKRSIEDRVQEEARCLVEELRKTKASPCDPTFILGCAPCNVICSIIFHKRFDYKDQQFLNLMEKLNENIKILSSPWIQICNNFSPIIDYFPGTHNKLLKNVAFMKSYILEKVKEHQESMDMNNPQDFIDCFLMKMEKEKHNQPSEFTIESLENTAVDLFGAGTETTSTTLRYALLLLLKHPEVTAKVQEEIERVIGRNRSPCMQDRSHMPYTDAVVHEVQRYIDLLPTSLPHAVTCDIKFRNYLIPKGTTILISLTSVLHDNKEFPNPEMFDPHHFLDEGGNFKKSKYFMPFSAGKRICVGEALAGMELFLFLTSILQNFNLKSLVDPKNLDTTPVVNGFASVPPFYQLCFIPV

Take `COc1cc(Nc2c(C#N)cnc3cc(OCCCN4CCN(C)CC4)ccc23)c(Cl)cc1Cl`: half-maximal inhibition in [1] (IC50) required 710 nM. This lies in the sub-micromolar range.

The molecule `COCCNc1cc2ncc(C#N)c(Nc3cc(OC)c(Cl)cc3Cl)c2cc1OC` returned a half-maximal inhibitory concentration (IC50) in series [1] of 1500 nM.

In the series on HT-29, `COc1cc(Nc2c(C#N)cnc3cc(OCCCN4CCN(C)CC4)c(OC)cc23)c(Cl)cc1Cl` [BOSUTINIB] yielded an inhibition in vivo at 150 mg/kg of 50%. The molecule further yielded an IC50 in series [1] of 100 nM. Also, the concentration at 24 h in [2] worked out at 47 ng/mL. For the same molecule, the concentration at 4 h in [3] amounted to 1060 ng/mL.

In the case of `CCOc1cc2c(Nc3cc(OC)c(Cl)cc3Cl)c(C#N)cnc2cc1OCCOC`, in series [1], the half-inhibitory concentration (IC50) was found to be 180 nM.

For `COCCOc1cc2ncc(C#N)c(Nc3cc(OC)c(Cl)cc3Cl)c2cc1OC`, the half-maximal inhibitory concentration (IC50) in [1] stood at 190 nM.

In the case of `COc1cc(Nc2c(C#N)cnc3cc(NCCCN(C)C)c(OC)cc23)c(Cl)cc1Cl`, in series [4], the Papp amounted to 7.3 ×10⁻⁶ cm/s. Also, the inhibition at 3 µM at CYP3A4, on CYP2D6 and against CYP2C9 was below 34% in each case. In addition, in series [5], the concentration at 8 h is 410 ng/mL. This molecule also came in with an inhibition in vivo at 150 mg/kg with HT-29 of 75%. The molecule also had an IC50 in series [1] of 300 nM. Besides, the solubility in series [6] was above 100 µg/mL. This molecule registered a concentration at 24 h in series [2] of 80 ng/mL. Also, the concentration at 4 h in [3] was determined as 610 ng/mL. Also, the remaining at 5 h in [7] was above 70%.

Molecule `COc1cc(Nc2c(C#N)cnc3cc(N(C)CCCN(C)C)c(OC)cc23)c(Cl)cc1Cl` returned an IC50 in series [1] of 2700 nM.

In the case of `COCCOc1ccc2c(Nc3cc(OC)c(Cl)cc3Cl)c(C#N)cnc2c1`, the IC50 in series [1] came out at 1600 nM.

Regarding `COc1cc(Nc2c(C#N)cnc3cc(NCCCN4CCN(C)CC4)c(OC)cc23)c(Cl)cc1Cl`, the Papp in series [4] is 10.7 ×10⁻⁶ cm/s. Further, the inhibition at 3 µM against CYP3A4, against CYP2D6 and on CYP2C9 was below 34% in each case. Further, in series [5], the concentration at 8 h turned out to be 520 ng/mL. In addition, at 150 mg/kg the inhibition in vivo in the series on HT-29 was 63%. Further, it took 360 nM to reach half-maximal inhibition in series [1] (IC50). In series [6], this molecule had a solubility of 32 µg/mL (≈ 60.4 µM). For the same molecule, the concentration at 24 h in series [2] came out at 100 ng/mL. Further, in series [3], the concentration at 4 h turned out to be 790 ng/mL. Further, the remaining at 5 h in series [7] was above 70%.

The molecule `COc1cc(Nc2c(C#N)cnc3cc(NCCCN4CCOCC4)c(OC)cc23)c(Cl)cc1Cl` returned an IC50 in series [1] of 390 nM.

Consider `COCCOc1ccc2c(Nc3ccc(Cl)cc3Cl)c(C#N)cnc2c1`, for which the IC50 in series [1] is above 10000 nM.

For `CCOc1cc2c(Nc3cc(OC)c(Cl)cc3Cl)c(C#N)cnc2cc1OCCCN1CCN(C)CC1`, the midpoint of inhibition in [1], the IC50, lay at 85 nM.

As usually defined, the IC50 is the midpoint of a concentration-inhibition curve. The term inhibition in vivo denotes the percentage by which the read-out fell short of the control. Read a high inhibition in vivo as a strong effect. A word on the inhibition: it is the drop in the measured response relative to a control, in per cent. Usually solubility stands for how much of the substance goes into solution per volume. Low readings indicate a poorly soluble substance, high ones a readily soluble substance.
